Legend:
[1] = DPPH radical scavenging assay; conditions: n in brackets
Experimental: The direct antioxidant effects of compounds 3 were investigated by studying their radical-scavenging effect on the 2,2-diphenyl-1-picrylhydrazyl free radical (DPPH^•). Thus, a 100 μL volume of a methanol solution of each compound was added to 200 μL of 100 μM methanolic DPPH^•, and the solution was kept in the dark at 37 °C for 30 min in a 96-well microliter plate. After this incubation, the absorption at 490 nm of each solution was measured with a microplate reader in order to quantitate its decrease. A blank reading was also taken to calculate the amount of remaining DPPH^•. The radical-scavenging activity exerted by compounds 3 was determined by comparison with a 10 μL of MeOH-treated blank group. Ascorbic acid, a well-known antioxidant acting as a radical scavenger, was used as reference. All samples were analyzed in triplicate. Percent inhibition of the DPPH^• radical was calculated using the equation shown below, where AbsCtrl is the absorbance of the blank group and Abss is the absorbance of the samples containing compounds 3. For each compound showing a percentage of inhibition above 60%, the IC50 value was determined using a dose–response curve obtained from measurements corresponding to at least six concentrations. %Scavenger=AbsCtrl−AbsS/AbsCtrl×100
The radical scavenging activity of all compounds was first studied by the DPPH assay, which measures the ability of antioxidant compounds to donate a hydrogen atom to the violet 2,2-diphenyl-1-picrylhydrazyl radical and transform it into a nonradical species. Thus, it is generally considered to belong to the hydrogen atom transfer (HAT) category of methods for measurement of antioxidant activity.

[2] = Ferric reducing antioxidant power (FRAP) assay; design: key to FRAP TEAC: trolox equivalents (TEAC), relative to trolox; conditions: for FRAP nmol Fe2+ at 30 µM: 30 µM compound, n in brackets; for FRAP TEAC: 30 µM, relative to trolox
Experimental: A ferric reducing antioxidant power (FRAP) kit assay purchased from Sigma-Aldrich (Madrid, Spain) was employed for the experiments. The antioxidant solutions, FRAP assay buffer solution, FeCl3 solution, and FRAP probe solution were kept in ice during the preparation of the plate. A calibration standard curve was prepared by using the 2 mM ferrous standard solution provided in the FRAP kit assay. Appropriate aliquots of this solution were taken and diluted up to a 200 μL final volume with FRAP buffer. The final ferrous concentrations measured in the well were: 0, 20, 40, 60, 80, and 100 μM. Each concentration value was prepared and measured by triplicate. Stock solutions of compounds 3, as well as reference compounds trolox and ferulic acid, were freshly prepared in 95% ethanol at […]. Aliquots of 10 μL of compounds 3 and the reference compounds were mixed with 19 μL FeCl3 solution and 19 μL FRAP probe solution, and then completed to a final volume of 200 μL with FRAP assay buffer solution. The final concentration of antioxidants and references was 30 μM. Compounds 3, reference compounds, as well as the corresponding blank solutions (one for each compound to be assayed, avoiding the chromogenic FRAP probe), and positive control were thoroughly mixed in vortex for 1–2 min with the reaction chromogenic media, and then were incubated under darkness at 37 °C in the dry bath, and using the device for support well-plates. Each compound to be assayed and the reference antioxidant compounds were prepared and measured by triplicate. The absorbance values were measured at 594 nm after 5 min of reaction and, to assure complete reaction, the absorbance values after 60 min of incubation at 37 °C in the dry bath were also measured. The absorbance values of the sample antioxidant compounds were corrected by subtracting the corresponding absorbance values of the blanks, and then they were introduced in the calibration curve and the ferrous equivalents were determined. The reference antioxidants employed for this assay were trolox and ferulic acid, which were obtained from Sigma-Aldrich (Madrid, Spain). Ultrapure water was obtained from a Milli-Q Direct 8 system (Millipore, Molsheim, France).
In order to achieve a broader insight into the antioxidant profile of our compounds, we also examined them using a single electron transfer (SET)-based method, namely the ferric reducing antioxidant power (FRAP) assay, which measures the ability of an antioxidant to reduce the ferric ion in the TPTZ (2,4,6-tri(2-pyridyl)-1,3,5-triazine)-Fe(III) complex.

SH-SY5Y cells [3] = test: Neuroprotection against rotenone/oligomycin A in SH-SY5Y cells (MTT); format: cell-based; conditions: Homo sapiens, 24 h, 1 µM compound, rotenone 30 µM + oligomycin A 10 µM, read-out: % Neuroprotection ± SEM at 1 µM (rotenone/oligomycin A)
Experimental: To evaluate the compounds for their neuroprotective effect in an oxidative stress model, we selected the rotenone (30 μM) and oligomycin A (10 μM) (R/O) cocktail, which disturbs the flow of electrons in the mitochondrial respiratory chain. Similarly, SH-SY5Y cells were preincubated with compounds 3 at 1 μM for 24 h. Then, they were co-incubated in the presence of R/O for a further 24 h, evaluating cell viability by the MTT reduction method.
Thus, the R/O combination constitutes a good model of oxidative stress and neurodegeneration with a mitochondrial origin, and has been broadly employed to evaluate potential hit compounds for the treatment of neurodegenerative diseases. Furthermore, treatment of laboratory animals with rotenone is known to induce many features associated to Parkinson’s disease, such as selective nigrostriatal dopaminergic degeneration and the appearance of α-synuclein cytoplasmic inclusions, which are associated with oxidative damage.

SH-SY5Y cells [4] = test: Neuroprotection against okadaic acid in SH-SY5Y cells (MTT); format: cell-based; conditions: Homo sapiens, SH-SY5Y, 18 h; 1 µM compound; okadaic acid 20 nM; read-out: % Neuroprotection ± SEM at 1 µM (okadaic acid)
Experimental: Neuroprotection studies against tau hyperphosphorylation exerted by okadaic acid (OA) were evaluated using the SH-SY5Y cell line as follows. […] After 18 h, cell viability was addressed by the MTT reduction method. MTT (5 mg/mL, 10 μL/well) was added and incubated for 2 h. Then, the medium was removed and the purple formazan crystals formed by viable cells were dissolved using 100 μL of DMSO. A FluoStar Optima spectrophotometer (BMG Labtech, Ortenberg, Baden-Württemberg, Germany) was used to measure the absorbance at 570 nm.
Okadaic acid is a potent inhibitor of protein phosphatase 2A (PP2A), thereby inducing tau hyperphosphorylation. For this reason, it can be employed as a model of neurodegenerative-disease-connected tau hyperphosphorylation, a well-known feature of Alzheimer’s disease, but present also in other NDDs, collectively known as tauopathies and characterized by the pathological aggregation of hyperphosphorylated tau in neurofibrillary tangles. […] Tau hyperphosphorylation is connected to oxidative stress, which activates p38 and deactivates calcineurin, a phosphatase involved in tau dephosphorylation by increasing RCAN1, its natural repressor [34, 35]. Indeed, hyperphosphorylation and oxidative stress have been proposed to generate a vicious circle that is critical to the advance of neurodegenerative tauopathies.

O=C1O[C@H]([C@@H](O)CO)C(O)=C1O [Ascorbic acid, reference compound]
IC50 [1]: 16.2 ± 0.7 µM

COc1cc(/C=C/C(=O)O)ccc1O [Ferulic acid, reference compound]
FRAP nmol Fe2+ at 30 µM [2]: 1.98 ± 0.04 (3) nmol Fe^2+
FRAP TEAC [2]: 0.87

COc1ccc2[nH]cc(CCNC(C)=O)c2c1 [Melatonin, reference compound]
% neuroprotection against rotenone/oligomycin A toxicity at 1 µM (SH-SY5Y cells [3]): 61.4 ± 8.75%
% neuroprotection against okadaic acid at 1 µM (SH-SY5Y cells [4]): 67.7 ± 13.9%

Cc1c(C)c2c(c(C)c1O)CCC(C)(C(=O)O)O2 (centres unmarked) [Trolox, reference compound]
IC50 [1]: 11.4 ± 1 µM
FRAP nmol Fe2+ at 30 µM [2]: 2.28 ± 0.15 (9) nmol Fe^2+
FRAP TEAC [2]: 1.00
